# Earlier results as cited in patent EP4732851A9, “LINKER, ANTIBODY-DRUG CONJUGATE, AND PREPARATION METHOD THEREFOR” (Fudan University, priority 2024, dated 2025).
# Settings: background statement; cited from earlier work
substance,measurement,value
PNU-159682,activity compared to MMDX and doxorubicin,3000 fold
